Test results published in US20150366890A1, “COMPOSITIONS AND METHODS FOR TREATING FUNGAL INFECTIONS” (TRUSTEES OF BOSTON UNIVERSITY, priority 2013, published 2015).

How the values were obtained:
Format in all cases: cell-based
[1] = system: C. albicans wildtype and DNA repair mutants; assay: Fungicidal killing, CFU assay; details: C. albicans rad50/rad50 and rad52/rad52, 3 hours of drug exposure
Procedure: Overnight yeast cultures were diluted into the indicated media and grown to an OD600 of 0.2, at which point the AFs were added. Colony forming units (CFU) were measured by plating six serial dilutions onto YPD agar plates.
(§1) Overnight yeast cultures were diluted into the indicated media and grown to an OD600 of 0.2, at which point the AFs were added. Colony forming units (CFU) were measured by plating six serial dilutions onto YPD agar plates. Cells treated with MCZ were washed before serial dilution to stop growth inhibition associated with high concentrations of MCZ. CFU were counted after three days of incubation on agar plates. When indicated, thiourea (Fluka) was added 30 min prior to the addition of AFs. HPF (10 μM) (Invitrogen) and Mito Tracker (1 μM) (Invitrogen) dyes were added to PBS-washed cells at the indicated time points and incubated for 30 min prior to flow cytometry measurements, which were taken on the FACSCalibur (Becton-Dickinson). All experiments described in this section were conducted in 0.5 ml of SDC in 24-well plates incubated at 900 rpm and 37° C. for C. albicans and 30° C. and 300 rpm for S. cerevisiae. TUNEL assays were conducted as previously described (Ribeiro et al., 2006) and are described in detail in the TUNEL section of the Experimental Procedures.

[2] = system: S. cerevisiae single-deletion yeast strains; assay: High-throughput 96-well screen of AF sensitivity of single-gene knockouts (CFU at start and after 8 hours)
Procedure: To identify genes critical to AF action, the AF sensitivity of single-gene knockouts identified through the common transcriptional analysis were identified. In the first pass-through, 56 testable genes were identified. This set was later expanded to include targets identified through phenotypic analysis and metabolomic profiling, for a total of 84 target genes (Table 2). The initial 56 targets were tested using a rapid high-throughput 96-well assay with AMB and MCZ to identify single-gene knockouts with elevated resistance to AFs (Table 2). Knockouts that were more resistant to at least one of the AFs were tested individually using the 24-well colony forming (CF) assay. Target genes selected after the initial 56 strains were assayed individually using the 24-well CF assay.
The first 56 S. cerevisiae strains were acquired from the deletion library and stored in 96-well plates in replicates of three. To start the assay, the plates were defrosted and 10 μl of stored cells were inoculated into 100 μl of fresh synthetic dextrose complete (SDC) media for 16 hours. These overnight cultures were diluted into a fresh 96-well plate with 100 μl of SDC to achieve an OD600 of approximately 0.2. Colony forming units (CFU) in each well were measured at the start of the assay and after 8 hours of incubation. The AF susceptibility of each strain was compared to that of wildtype. Strains with significant susceptibility differences from wildtype were assayed in 0.5 ml of SDC media using the 24-well plate CF assay described above.

S. cerevisiae = assay: Mitochondrial activity by MitoTracker Red fluorescence; details: drug added to glucose-incubated (SC, 2% glucose) S. cerevisiae
Procedure: It was next sought to assess the mitochondrial activity of AF-treated fungal cells. Yhe MitoTracker Red dye, which enters the mitochondrial matrix by utilizing the proton motive force and thus labels metabolically active mitochondria in viable cells was used (Arita et al., 2006; Tomas et al., 2011). Exponential phase S. cerevisiae were incubated in glucose-free synthetic complete (SC) media for 30 min and then switched to SC containing 2% glucose or non-fermentable acetate for 1.5 hours.
as §1

C[C@@H]1[C@H](O)[C@@H](C)/C=C/C=C/C=C/C=C/C=C/C=C/C=C/[C@H](O[C@@H]2O[C@H](C)[C@@H](O)[C@H](N)[C@@H]2O)C[C@@H]2O[C@](O)(C[C@@H](O)C[C@@H](O)[C@H](O)CC[C@@H](O)C[C@@H](O)CC(=O)O[C@H]1C)C[C@H](O)[C@H]2C(=O)O [AMB, amphotericin B]
susceptibility of DSBR mutants compared to wildtype [1]: particularly susceptible
96 Well Screen, AF susceptibility vs wildtype ([2]; S. cerevisiae PAB101, WT): Normal
96 Well Screen, AF susceptibility vs wildtype ([2]; S. cerevisiae PAB102, HSP104 deletion): Resistant (″Resistant″ or ″Sensitive″ indicate at least a 5-fold CFU difference from wildtype at the final time point)
96 Well Screen, AF susceptibility vs wildtype ([2]; S. cerevisiae PAB103, SDH2 deletion): Resistant (″Resistant″ or ″Sensitive″ indicate at least a 5-fold CFU difference from wildtype at the final time point)
96 Well Screen, AF susceptibility vs wildtype ([2]; S. cerevisiae PAB104, FRE8 deletion): Resistant (″Resistant″ or ″Sensitive″ indicate at least a 5-fold CFU difference from wildtype at the final time point)
96 Well Screen, AF susceptibility vs wildtype ([2]; S. cerevisiae PAB105, CHA4 deletion): Resistant (″Resistant″ or ″Sensitive″ indicate at least a 5-fold CFU difference from wildtype at the final time point)
96 Well Screen, AF susceptibility vs wildtype ([2]; S. cerevisiae PAB106, FMS1 deletion): Resistant (″Resistant″ or ″Sensitive″ indicate at least a 5-fold CFU difference from wildtype at the final time point)
96 Well Screen, AF susceptibility vs wildtype ([2]; S. cerevisiae PAB107, NDE1 deletion): Resistant (″Resistant″ or ″Sensitive″ indicate at least a 5-fold CFU difference from wildtype at the final time point)
96 Well Screen, AF susceptibility vs wildtype ([2]; S. cerevisiae PAB108, ALD3 deletion): Resistant (″Resistant″ or ″Sensitive″ indicate at least a 5-fold CFU difference from wildtype at the final time point)
96 Well Screen, AF susceptibility vs wildtype ([2]; S. cerevisiae PAB109, GAD1 deletion): Normal
96 Well Screen, AF susceptibility vs wildtype ([2]; S. cerevisiae PAB110, PGM3 deletion): Normal
96 Well Screen, AF susceptibility vs wildtype ([2]; S. cerevisiae PAB111, PYK2 deletion): Resistant (″Resistant″ or ″Sensitive″ indicate at least a 5-fold CFU difference from wildtype at the final time point)
96 Well Screen, AF susceptibility vs wildtype ([2]; S. cerevisiae PAB112, MNE1 deletion): Normal
96 Well Screen, AF susceptibility vs wildtype ([2]; S. cerevisiae PAB113, FUM1 deletion): Normal
96 Well Screen, AF susceptibility vs wildtype ([2]; S. cerevisiae PAB114, TPK2 deletion): Normal
96 Well Screen, AF susceptibility vs wildtype ([2]; S. cerevisiae PAB115, ATG29 deletion): Resistant (″Resistant″ or ″Sensitive″ indicate at least a 5-fold CFU difference from wildtype at the final time point)
96 Well Screen, AF susceptibility vs wildtype ([2]; S. cerevisiae PAB116, ISU1 deletion): Resistant (″Resistant″ or ″Sensitive″ indicate at least a 5-fold CFU difference from wildtype at the final time point)
96 Well Screen, AF susceptibility vs wildtype ([2]; S. cerevisiae PAB117, CYC7 deletion): Normal
96 Well Screen, AF susceptibility vs wildtype ([2]; S. cerevisiae PAB118, ARN1 deletion): Normal
96 Well Screen, AF susceptibility vs wildtype ([2]; S. cerevisiae PAB119, CIT2 deletion): Resistant (″Resistant″ or ″Sensitive″ indicate at least a 5-fold CFU difference from wildtype at the final time point)
96 Well Screen, AF susceptibility vs wildtype ([2]; S. cerevisiae PAB120, HSP30 deletion): Normal
96 Well Screen, AF susceptibility vs wildtype ([2]; S. cerevisiae PAB121, SDH1 deletion): Normal
96 Well Screen, AF susceptibility vs wildtype ([2]; S. cerevisiae PAB122, TPK3 deletion): Resistant (″Resistant″ or ″Sensitive″ indicate at least a 5-fold CFU difference from wildtype at the final time point)
96 Well Screen, AF susceptibility vs wildtype ([2]; S. cerevisiae PAB123, ISU2 deletion): Normal
96 Well Screen, AF susceptibility vs wildtype ([2]; S. cerevisiae PAB124, TPK1 deletion): Normal
96 Well Screen, AF susceptibility vs wildtype ([2]; S. cerevisiae PAB125, MID2 deletion): Normal
96 Well Screen, AF susceptibility vs wildtype ([2]; S. cerevisiae PAB126, SSK1 deletion): Sensitive (″Resistant″ or ″Sensitive″ indicate at least a 5-fold CFU difference from wildtype at the final time point)
96 Well Screen, AF susceptibility vs wildtype ([2]; S. cerevisiae PAB127, HSP42 deletion): Normal
96 Well Screen, AF susceptibility vs wildtype ([2]; S. cerevisiae PAB128, PIG1 deletion): Normal
96 Well Screen, AF susceptibility vs wildtype ([2]; S. cerevisiae PAB130, UGA1 deletion): Resistant (″Resistant″ or ″Sensitive″ indicate at least a 5-fold CFU difference from wildtype at the final time point)
96 Well Screen, AF susceptibility vs wildtype ([2]; S. cerevisiae PAB131, MTL1 deletion): Normal
96 Well Screen, AF susceptibility vs wildtype ([2]; S. cerevisiae PAB132, CIT3 deletion): Resistant (″Resistant″ or ″Sensitive″ indicate at least a 5-fold CFU difference from wildtype at the final time point)
96 Well Screen, AF susceptibility vs wildtype ([2]; S. cerevisiae PAB133, ZWF1 deletion): Normal
96 Well Screen, AF susceptibility vs wildtype ([2]; S. cerevisiae PAB134, SUM1 deletion): sensitive
96 Well Screen, AF susceptibility vs wildtype ([2]; S. cerevisiae PAB135, NDI1 deletion): Resistant (″Resistant″ or ″Sensitive″ indicate at least a 5-fold CFU difference from wildtype at the final time point)
96 Well Screen, AF susceptibility vs wildtype ([2]; S. cerevisiae PAB136, PGM2 deletion): Normal
96 Well Screen, AF susceptibility vs wildtype ([2]; S. cerevisiae PAB137, HFD1 deletion): Normal
96 Well Screen, AF susceptibility vs wildtype ([2]; S. cerevisiae PAB138, PUF2 deletion): Normal
96 Well Screen, AF susceptibility vs wildtype ([2]; S. cerevisiae PAB139, TDH1 deletion): Sensitive (″Resistant″ or ″Sensitive″ indicate at least a 5-fold CFU difference from wildtype at the final time point)
96 Well Screen, AF susceptibility vs wildtype ([2]; S. cerevisiae PAB140, GUD1 deletion): Sensitive (″Resistant″ or ″Sensitive″ indicate at least a 5-fold CFU difference from wildtype at the final time point)
96 Well Screen, AF susceptibility vs wildtype ([2]; S. cerevisiae PAB141, ATG15 deletion): Sensitive (″Resistant″ or ″Sensitive″ indicate at least a 5-fold CFU difference from wildtype at the final time point)
96 Well Screen, AF susceptibility vs wildtype ([2]; S. cerevisiae PAB142, TDH2 deletion): Sensitive (″Resistant″ or ″Sensitive″ indicate at least a 5-fold CFU difference from wildtype at the final time point)
96 Well Screen, AF susceptibility vs wildtype ([2]; S. cerevisiae PAB143, ATP1 deletion): Sensitive (″Resistant″ or ″Sensitive″ indicate at least a 5-fold CFU difference from wildtype at the final time point)
96 Well Screen, AF susceptibility vs wildtype ([2]; S. cerevisiae PAB144, UGA2 deletion): Sensitive (″Resistant″ or ″Sensitive″ indicate at least a 5-fold CFU difference from wildtype at the final time point)
96 Well Screen, AF susceptibility vs wildtype ([2]; S. cerevisiae PAB145, CIT1 deletion): Resistant (″Resistant″ or ″Sensitive″ indicate at least a 5-fold CFU difference from wildtype at the final time point)
96 Well Screen, AF susceptibility vs wildtype ([2]; S. cerevisiae PAB146, SOLI deletion): Normal
96 Well Screen, AF susceptibility vs wildtype ([2]; S. cerevisiae PAB147, PAN6 deletion): Normal
96 Well Screen, AF susceptibility vs wildtype ([2]; S. cerevisiae PAB148, SOL4 deletion): Normal
96 Well Screen, AF susceptibility vs wildtype ([2]; S. cerevisiae PAB149, YAK1 deletion): Sensitive (″Resistant″ or ″Sensitive″ indicate at least a 5-fold CFU difference from wildtype at the final time point)
96 Well Screen, AF susceptibility vs wildtype ([2]; S. cerevisiae PAB150, PBS2 deletion): Sensitive (″Resistant″ or ″Sensitive″ indicate at least a 5-fold CFU difference from wildtype at the final time point)
96 Well Screen, AF susceptibility vs wildtype ([2]; S. cerevisiae PAB152, GPD1 deletion): Sensitive (″Resistant″ or ″Sensitive″ indicate at least a 5-fold CFU difference from wildtype at the final time point)
96 Well Screen, AF susceptibility vs wildtype ([2]; S. cerevisiae PAB153, SHO1 deletion): Sensitive (″Resistant″ or ″Sensitive″ indicate at least a 5-fold CFU difference from wildtype at the final time point)
96 Well Screen, AF susceptibility vs wildtype ([2]; S. cerevisiae PAB154, FET3 deletion): Sensitive (″Resistant″ or ″Sensitive″ indicate at least a 5-fold CFU difference from wildtype at the final time point)
96 Well Screen, AF susceptibility vs wildtype ([2]; S. cerevisiae PAB155, FBP1 deletion): Sensitive (″Resistant″ or ″Sensitive″ indicate at least a 5-fold CFU difference from wildtype at the final time point)
96 Well Screen, AF susceptibility vs wildtype ([2]; S. cerevisiae PAB156, COX6 deletion): Sensitive (″Resistant″ or ″Sensitive″ indicate at least a 5-fold CFU difference from wildtype at the final time point)
increase of MitoTracker fluorescence (S. cerevisiae): 60 fold
